Entries after “also recorded” stand apart in the source; their conditions may differ.
Experiments:
[1] = test system: P. berghei ookinete formation; assay: P. berghei ookinete development assay; type: cell-based, Plasmodium berghei; conditions: 10 µM
[2] = test system: P. falciparum oocyst formation; assay: Standard membrane feed assay, P. falciparum oocysts in A. stephensi; type: in vivo, Plasmodium falciparum; conditions: 10 µM, gametocytes exposed 24 h before feeding
Method: Gametocyte cultures were produced according to the same protocol as the Pf exflagellation assay. Pooled gametocyte cultures were evenly divided between compounds in fresh medium and incubated at 37°C for 24 h. The parasite pellets were then resuspended in fresh RBCs and human serum treated with the compounds to a 50% haematocrit and immediately fed to mosquitoes as described above and then maintained at 27°C/60%RH for 10–12 d before dissection and counting.
Figure 3 The transmission-blocking potential of selected antimalarials in three bioassays that cover different phases of Plasmodium vector stage development. (A) Assays examined exflagellation (P. falciparum), ookinete formation (P. berghei), or oocyst formation (P. falciparum). All antimalarials were screened at 10 µM. (B) The biological content of the in vitro P. berghei ookinete assay spans gamete formation, fertilization, zygote development, and ookinete formation. Ookinete formation was insensitive to most of the antimalarials tested. […] (D) The in vitro P. falciparum exflagellation assay exposes mature gametocytes to antimalarials for 24 h before triggering exflagellation. […] All experiments in triplicate. (E) The in vivo P. falciparum oocyst assay differs from the P. berghei oocyst assay in that mature gametocytes were exposed to the antimalarials in culture for 24 h before feeding to mosquitoes. […] NPC1161-B, lumefantrine, halofantrine, and mefloquine +RS isomer were also active. (n = 4–61 observations; average ± standard error of the mean [SEM]).

Plasmodium oocysts = assay: Oocyst development / sporogony, Plasmodium species not stated at the place; type: in vivo; conditions: for inhibition at 10 µM: Plasmodium, box linked to oocysts, read-out: Inhibition at 10 μM (oocysts, Figure 5)

Row | Structure (SMILES) | effect on ookinete formation [1] | transmission-blocking effect on P. falciparum oocysts (words) [2] | transmission-blocking effect on P. falciparum oocysts (words) ([2]; listed as NPC1161-B) | inhibition at 10 µM (Plasmodium oocysts) [%] | effect on sporogony / oocyst production (Plasmodium oocysts; species not given)
1 | COc1cc(N[C@H](C)CCCN)c2nccc(C)c2c1Oc1ccc(Cl)c(Cl)c1 [NPC-1161B] | all assays except the ookinete assay | totally blocked transmission | active; also recorded: showed potency | > 90 | inhibits sporogony; also recorded: inhibit exflagellation in vitro and oocyst production in the mosquito vector; also recorded: inhibited both exflagellation and oocyst production
2 | CCCCN(CCCC)CCC(O)c1cc2c(Cl)cc(Cl)cc2c2cc(C(F)(F)F)ccc12 (stereo not shown) [halofantrine] |  | active; also recorded: impaired sporogony |  | > 90 | 
